In patent US20030203966A1, “Nitromethylthiobenzene derivatives as aldose reductase inhihibitors” (priority 1996, published 2003) one finds melting point, inhibition in vivo and IC50 data, which are given here for 16 compounds.

Data set [1] has as its system level of sorbitol in the sciatic nerves. The data set can be described thus: In vivo study: reduction of the accumulation of sorbitol. Details: species or system male Wistar rats. The following applies: Rattus norvegicus, po; 5 mg/kg/day p.o.; streptozotocin-diabetic rats; sciatic nerve sorbitol, relative to diabetic and non-diabetic animals; read-out: Protection against the increase in sorbitol (%) (5 mg/kg/day p.o.). The procedure:
2) In vivo study: reduction of the accumulation of sorbitol
Male Wistar rats weighing from 200 to 250 g are made diabetic by intravenous injection of streptozotocin (60 mg/kg). They then receive an oral treatment of the test products, in the form of a suspension, 4 hours, 30 hours and 52 hours after the injection of streptozotocin. 18 hours after the final oral treatment, the rats are sacrificed and decapitated and their sciatic nerves are then removed. After extraction, the level of sorbitol in the nerves is measured, according to the enzymatic method described by H. J. Bergmeyer (Methods of enzymatic analysis, H. U. Bergmeyer ed., Academic Press New York 3, p. 1323, 1974). The percentage of protection is calculated for each product relative to the batch of diabetic animals, taking into account the level of sorbitol in the sciatic nerves of non-diabetic rats.

Data set [2] deals with T1, aldose reductase (Rattus norvegicus, UniProt P07943).
T1 construct: The aldose reductase used is obtained from the lenses of male Wistar rats; from tissue; host or cells: lenses of male Wistar rats
In words: In vitro study: inhibition of aldose reductase. It counts as biochemical, male Wistar rats (lenses). The following applies: enzyme from rat lenses; NADPH, L-glyceraldehyde; spectrophotometry at 340 nm. As for the experimental part:
1) In vitro study: inhibition of aldose reductase
The aldose reductase used is obtained from the lenses of male Wistar rats according to a modification of the method by S. Hayman et al. (Journal of Biological Chemistry 240, p. 877, 1965). The enzymatic extract is diluted in a phosphate buffer in the presence of NADPH and various concentrations of the test products. The reaction is triggered with L-glyceraldehyde and the rate of reaction is measured by monitoring the disappearance of the NADPH by spectrophotometry at 340 nm. The rate of reaction is calculated for each concentration of products, and the concentration required for a 50% reduction in the rate of reaction (IC50) is then evaluated by linear interpolation.

Broadly, the melting point is the temperature, or range, at which the solid turns liquid. In general, IC50 refers to the point on the concentration scale where inhibition reaches its midpoint. A high value points to a need for much substance. With `Cc1cc(NS(=O)(=O)c2ccccc2)cc(C)c1S(=O)(=O)C[N+](=O)[O-]` [Example 1], the melting point was 129 to 131 °C. The inhibition in vivo at 5 mg/kg in data set [1] amounted to 65%. The IC50 in data set [2] was determined as 8 nM.
For `Cc1cc(NS(=O)(=O)c2ccc(F)c(F)c2)cc(C)c1S(=O)(=O)C[N+](=O)[O-]` [Example 10, 3,4-Difluoro-N-[3,5-dimethyl-4-[(nitromethyl)sulphonyl]phenyl]benzenesulphonamide], the melting point lay in the range of 158 to 160 °C. The inhibition in vivo at 5 mg/kg in data set [1] was determined as 66%. The same compound yielded an IC50 in data set [2] of 7 nM.
For the compound `Cc1cc(NS(=O)(=O)c2cccc(Br)c2)cc(C)c1S(=O)(=O)C[N+](=O)[O-]` [Example 13, 3-Bromo-N-[3,5-dimethyl-4-[(nitromethyl)sulphonyl]-phenyl]benzenesulphonamide], the melting point fell in the range of 156 to 158 °C. In addition, the inhibition in vivo at 5 mg/kg in data set [1] was found to be 70%. 8 nM corresponded to half-maximal inhibition in data set [2] (IC50).
Compound `Cc1cc(NS(=O)(=O)c2ccccc2C(F)(F)F)cc(C)c1S(=O)(=O)C[N+](=O)[O-]` [Example 14, N-[3,5-Dimethyl-4-[(nitromethyl)sulphonyl]phenyl]-2-(trifluoromethyl)benzenesulphonamide] yielded a melting point of 171 to 173 °C. In addition, in data set [1], the inhibition in vivo at 5 mg/kg came to 70%. The compound further gave an IC50 in data set [2] of 7 nM.
In turn, `Cc1cc(NS(=O)(=O)c2ccc(F)cc2)cc(C)c1S(=O)(=O)C[N+](=O)[O-]` [Example 24, N-[3,5-Dimethyl-4-[(nitromethyl)sulphonyl]phenyl]-4-fluorobenzenesulphonamide] came in with a melting point of 152 to 154 °C. Besides, the inhibition in vivo at 5 mg/kg in data set [1] is 80%. Moreover, in data set [2], the IC50 came out at 8 nM.
For `Cc1cc(NS(=O)(=O)c2cccc(F)c2)cc(C)c1S(=O)(=O)C[N+](=O)[O-]` [Example 25, N-[3,5-Dimethyl-4-[(nitromethyl)sulphonyl]phenyl]-3-fluorobenzenesulphonamide], the melting point lay in the range of 135 to 137 °C. Further, the inhibition in vivo at 5 mg/kg in data set [1] stood at 85%. For the same compound, the half-inhibitory concentration (IC50) in data set [2] came to 7 nM.
For the compound `Cc1cc(NS(=O)(=O)Cc2ccccc2)cc(C)c1S(=O)(=O)C[N+](=O)[O-]` [Example 26, N-[3,5-Dimethyl-4-[(nitromethyl)sulphonyl]phenyl]-phenylmethanesulphonamide], the melting point was 124 to 126 °C. Moreover, the inhibition in vivo at 5 mg/kg in data set [1] came out at 104%. Besides, the concentration for half-maximal inhibition (IC50) in data set [2] was 6 nM.
In turn, `Cc1cc(NS(=O)(=O)c2cccc(F)c2F)cc(C)c1S(=O)(=O)C[N+](=O)[O-]` [Example 29, 2,3-Difluoro-N-[3,5-dimethyl-4-[(nitromethyl)sulphonyl]phenyl]benzenesulphonamide] gave a melting point of 166 to 168 °C. The inhibition in vivo at 5 mg/kg in data set [1] is 71%. Moreover, the midpoint of inhibition in data set [2], the IC50, lay at 7 nM.
For `Cc1cc(NS(=O)(=O)c2cc(F)cc(F)c2)cc(C)c1S(=O)(=O)C[N+](=O)[O-]` [Example 30, 3,5-Difluoro-N-[3,5-dimethyl-4-[(nitromethyl)sulphonyl]phenyl]benzenesulphonamide], in that order: 187 to 190 °C, 87% and 8 nM.
In turn, `Cc1cc(NS(=O)(=O)c2ccccc2F)cc(C)c1S(=O)(=O)C[N+](=O)[O-]` [Example 34, N-[3,5-Dimethyl-4-[(nitromethyl)sulphonyl]phenyl]-2-fluorobenzenesulphonamide] registered a melting point of 175 to 177 °C. Moreover, the inhibition in vivo at 5 mg/kg in data set [1] is 69%. It took 9 nM to reach half-maximal inhibition in data set [2] (IC50).
As for `Cc1cc(NS(=O)(=O)c2cccnc2)cc(C)c1S(=O)(=O)C[N+](=O)[O-]` [Example 47, N-[3,5-Dimethyl-4-[(nitromethyl)sulphonyl]phenyl]-3-pyridinesulphonamide], the melting point is 191 to 192 °C.
`Cc1cc(NS(=O)(=O)Cc2ccccc2C(F)(F)F)cc(C)c1S(=O)(=O)C[N+](=O)[O-]` [Example 48, N-[3,5-Dimethyl-4-[(nitromethyl)sulphonyl]phenyl]-(2-trifluoromethylphenyl)methanesulphonamide]: the melting point lay in the range of 146 to 148 °C.
As to `CC(=O)Nc1cccc(S(=O)(=O)Nc2cc(C)c(S(=O)(=O)C[N+](=O)[O-])c(C)c2)c1` [Example 50, N-[3[[3,5-Dimethyl-4-[(nitromethyl)sulphonyl]phenylamino]sulphonyl]phenyl]acetamide], the melting point fell in the range of 108 to 110 °C.
Compound `Cc1ccccc1CS(=O)(=O)Nc1cc(C)c(S(=O)(=O)C[N+](=O)[O-])c(C)c1` [Example 51, N-[3,5-Dimethyl-4-[(nitromethyl)sulphonyl]phenyl]-(2-methylphenyl)methanesulphonamide] registered a melting point of 167 to 169 °C.
The compound `Cc1cc(NS(=O)(=O)Cc2ccc(Br)cc2F)cc(C)c1S(=O)(=O)C[N+](=O)[O-]` [Example 52, 4-Bromo-N-[3,5-dimethyl-4-[(nitromethyl)sulphonyl]-phenyl]-(2-fluorophenyl)methanesulphonamide] returned a melting point of 152 to 154 °C.
In turn, `Cc1cc(NS(=O)(=O)CC2CCCCC2)cc(C)c1S(=O)(=O)C[N+](=O)[O-]` [Example 53, N-[3,5-Dimethyl-4-[(nitromethyl)sulphonyl]phenyl]-cyclohexylmethanesulphonamide] showed a melting point of 126 to 128 °C.
